Experimental data from article PMC8764033, “Single-molecule analysis of specificity and multivalency in binding of short linear substrate motifs to the APC/C” (Nature Communications, 2022).
Where a SMILES comes first, the peptide text is derived from it.

Legend:
APC/C^Apc10-4A, Cdh1 = experiment: SMOR assay, yeast APC/C^Apc10-4A, Cdh1; type: binding, Saccharomyces cerevisiae
Description: (§1) Yeast strains were derivatives of W303 and are listed in Supplementary Table 2. For APC/C purification, we used a strain carrying Cdc16-TAP and lacking Cdh1 (DOM1126); in most experiments, the strain also carried Apc1-GFP (NHY13). Yeast were grown in YPD media to OD600 = 0.8, collected and flash-frozen. Cells were lysed by bead beating in lysis buffer A (50 mM HEPES pH 7.5, 150 mM KCl, 10% glycerol, 0.2% Triton X-100, 63 µM B-glycerophosphate, 48 µM sodium fluoride, 1 µg ml^−1 pepstatin A, 1 µg ml^−1 leupeptin, 1 µg ml^−1 aprotinin, 1 mM PMSF, 1 mM DTT, 0.5 mM EDTA) and APC/C was purified using magnetic IgG beads. The beads were washed using wash buffer A (20 mM HEPES pH 7.5, 150 mM KCl, 10% Glycerol, 0.05% Triton X-100). After incubation with purified Cdh1 or Cdc20, the APC/C was cleaved off the beads with TEV protease in wash buffer A with 0.05% Tween-20 (for single-molecule studies) or 0.05% Triton X-100 (for ensemble assays such as ubiquitylation) and used immediately.
(§2) For all SMOR experiments, 24 × 50 mm high precision glass coverslips (Bioscience Tools) and drilled microscope slides were passivated with a combination of PEG and PEG-biotin (coverslips) or PEG only (slides) following a previously published protocol for SiMPull[31]. Reaction chambers (~20 µl) were created using double-sided tape and epoxy. Protein was immobilized on the surface with 0.2 mg ml^−1 NeutrAvidin in buffer C (20 mM HEPES pH 7.5, 150 mM KCl, 10% glycerol, 0.05% Tween-20, 1 mM DTT). Excess NeutrAvidin was washed away and incubated with either biotin-conjugated mouse monoclonal anti-Strep-Tag II antibody (LSBio, Cat. No. LS-C203632-100) or biotin-conjugated rabbit polyclonal anti-GFP antibody (Rockland, Cat. No. 600-406-215) diluted in buffer C + BSA (0.1 mg ml^−1; Molecular Biology Grade Bovine Serum Albumin). Activator WD40 and activated APC/C (typically 50 µl containing about 65 ng APC/C, of which only a small fraction is immobilized on the glass) were immobilized using anti-Strep-Tag II, while APC/C alone was immobilized with anti-GFP. SMOR results were similar when performed in the buffer (wash buffer B) used in polarization anisotropy.
(§3) To capture dynamic protein–protein interactions, dye-labeled substrate diluted in buffer C + BSA was added to the chamber containing immobilized proteins. Interactions were imaged by TIRF microscopy as described below. For optimal signal-to-noise ratio, peptide concentration was no greater than 1 nM. […]
(§4) Microscopy was performed with a Nikon Eclipse TE2000-E with Perfect Focus with a 100 × 1.49na oil, Apo TIRF DIC N2, 0.13-0.2, WD0.12 objective. Movies were recorded using the Andor iXon DU-897E-CSO. […]

APC/C^Apc10-4A, Cdc20 = experiment: SMOR assay, yeast APC/C^Apc10-4A, Cdc20; type: binding, Saccharomyces cerevisiae
Description: as §1, §2, §3, §4

hCdh1^WD40 = biological target: T1, hCdh1^WD40 (Homo sapiens, UniProt Q9UM11); experiment: Fluorescence anisotropy, 10 nM Cy5-labeled peptide, hCdh1^WD40; type: binding
T1 construct: human Cdh1 (aa 165–484; pNH164); made in house; host or cells: Sf9 insect cells (baculovirus)
Description: Activators were cloned into the pFastBac HT A vector, with an N-terminal 2xStrep-Tag II. For some experiments, we constructed vectors for expression of the WD40 domains of yeast Cdh1 (aa 241–550; pNH144), human Cdh1 (aa 165–484; pNH164), or human Cdc20 (aa 162–484; pNH188). For SMOR, a C-terminal GFP tag was added. Bacmid plasmids are listed in Supplementary Table 3. Plasmids were transformed into DH10Bac cells, and purified Bacmid was used to transfect Sf9 cells to generate P1 baculovirus, which was used to generate P2 virus. SF9 cells were infected with the P2 virus for 48 h. […]
Fluorescent degron peptides carried a C-terminal Cy5 label (CPC Scientific) and are listed in Supplementary Table 4. For anisotropy experiments, 10 nM fluorescent peptide was mixed with various concentrations of purified Cdh1 WD40 in wash buffer B at room temperature for 1 min, which we determined was sufficient for the binding reaction to reach equilibrium. Fluorescence was measured on a K2 Multifrequency Fluorometer at 25 °C. All Cy5-labeled peptides were excited with polarized light at 635 nm and emission was detected using a 700/75 nm bandpass filter (ET series, Chroma). […] Results were the same when peptide binding was measured in the buffer used in SMOR assays (buffer C, below). […]

[1] = Supplementary Table 1, replicate 1
[2] = Supplementary Table 1, replicate 2

T1 sequence (Q9UM11 165-484): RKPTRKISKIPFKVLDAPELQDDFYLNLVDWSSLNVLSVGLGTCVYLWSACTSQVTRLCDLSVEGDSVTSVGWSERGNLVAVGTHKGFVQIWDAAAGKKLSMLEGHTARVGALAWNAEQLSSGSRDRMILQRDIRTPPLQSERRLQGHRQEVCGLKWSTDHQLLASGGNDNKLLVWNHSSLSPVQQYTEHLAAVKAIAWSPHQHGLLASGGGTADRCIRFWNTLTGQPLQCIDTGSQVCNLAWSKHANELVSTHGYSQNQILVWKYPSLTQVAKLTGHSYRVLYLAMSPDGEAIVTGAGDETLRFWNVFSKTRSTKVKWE

## CC[C@H](C)[C@H](NC(=O)[C@H](Cc1ccccc1)NC(=O)[C@H](CO)NC(=O)[C@H](CCCCN)NC(=O)[C@H](CO)NC(=O)[C@H](CCCNC(=N)N)NC(=O)[C@H](CC(N)=O)NC(=O)[C@H](CC(N)=O)NC(=O)[C@H](CC(=O)O)NC(=O)[C@H](CCCCN)NC(=O)[C@H](C)NC(=O)[C@H](C)NC(=O)[C@H](CC(C)C)NC(=O)[C@@H]1CCCN1C(=O)[C@H](CC(C)C)NC(=O)[C@H](CCCNC(=N)N)NC(=O)CNC(=O)[C@H](CCC(N)=O)NC(=O)[C@H](CCC(N)=O)NC(=O)[C@H](CCC(N)=O)NC(=O)[C@H](C)N)C(=O)N[C@@H](CCCCN)C(=O)O [ySecurin D box] (H-AQQQGRLPLAAKDNNRSKSFIK-OH; N-terminus and C-terminus assumed)
APC/C^Apc10-4A, Cdh1; [1]
  Dwell Time (in words): single frame
APC/C^Apc10-4A, Cdh1; [2]
  Dwell Time (in words): single frame
APC/C^Apc10-4A, Cdc20; [1]
  Dwell Time (in words): single frame
APC/C^Apc10-4A, Cdc20; [2]
  Dwell Time (in words): single frame

## LPKATRKALGTVNRATEKSVK-K(Cy5) [AurKB D box, Cy5-labeled D box peptide of Aurora B kinase]
hCdh1^WD40
  binding to human Cdh1 (in words): significant but low-affinity binding to Cdh1

## CC[C@H](C)[C@H](NC(=O)[C@H](CC(=O)O)NC(=O)[C@H](CO)NC(=O)[C@H](C)NC(=O)[C@H](C)NC(=O)[C@H](C)NC(=O)[C@H](C)NC(=O)[C@H](CCCCN)NC(=O)[C@@H]1CCCN1C(=O)[C@H](CCCCN)NC(=O)[C@H](CCC(N)=O)NC(=O)[C@@H](N)CCC(=O)O)C(=O)N[C@H](C(=O)N[C@@H](C)C(=O)N[C@@H](CO)C(=O)N[C@@H](Cc1ccccc1)C(=O)N[C@@H](CC(N)=O)C(=O)N[C@@H](CCCCN)C(=O)N[C@@H](CCSC)C(=O)N[C@@H](CC(N)=O)C(=O)N[C@@H](CCCCN)C(=O)O)[C@@H](C)O [Hsl1 D box mutant] (H-EQKPKAAAASDITASFNKMNK-OH; N-terminus and C-terminus assumed)
APC/C^Apc10-4A, Cdh1
  binding (in words): No binding
APC/C^Apc10-4A, Cdh1; [1]
  Dwell Time (in words): no binding
APC/C^Apc10-4A, Cdc20
  binding (in words): No binding
APC/C^Apc10-4A, Cdc20; [1]
  Dwell Time (in words): no binding

## LIYVDKENGEPGTR-K(Cy5) [hSecurin KEN, Cy5-labeled KEN box peptide of human securin/Pttg1]
hCdh1^WD40
  binding to human Cdh1 (in words): significant but low-affinity binding to Cdh1
